One data set deals with PDE5 enzyme (Homo sapiens, UniProt O76074). The data set is described as follows: in vitro inhibition of cGMP PDE5. The data set is classed as biochemical. The text has this: The compounds of the present invention have been tested in vitro and found to be potent and selective inhibitors of cGMP PDE5.

Counter-ions that a name gives are not always drawn.

What is called melting point is the temperature, or range, at which the solid turns liquid. One may read the IC50 as the midpoint of a concentration-inhibition curve.

In turn, `CCCc1nn(C)c2c(=O)[nH]c(-c3cc(S(=O)(=O)N4CCN(CC(=O)N[C@@H](CS)C(=O)O)CC4)ccc3OCC)nc12` (as salt: salt) (hydrate or solvate) [Example 2, sildenafil analog amide with cysteine] displayed a melting point of 166 to 168 °C. Molecule `CCCc1nn(C)c2c(=O)[nH]c(-c3cc(S(=O)(=O)N4CCN(CC(=O)Oc5ccc(-c6cc(=S)ss6)cc5)CC4)ccc3OCC)nc12` [Example 1, sildenafil analog ester with 5-(p-hydroxyphenyl)-3H-1,2-dithiol-3-thione] had a melting point of 188 to 189 °C. The same molecule yielded an IC50 against PDE5 enzyme of 6.8 to 7.2 nM.

Molecule `CCCc1nn(C)c2c(=O)[nH]c(-c3cc(S(=O)(=O)N4CCN(CC(=O)N[C@@H](CS)C(=O)O)CC4)ccc3OCC)nc12` [Example 2, sildenafil analog amide with cysteine] returned an IC50 against PDE5 enzyme of 6.8 to 7.2 nM.

The values are drawn from US20090227597A1, “PYRAZOLOPYRIMIDINONES AS PHOSPHODIESTERASE INHIBITORS” (CTG PHARMA S.R.L., priority 2004, published 2009).
